The source made the active and inactive calls.
Assays:
Format in all cases: functional, organism-based
Escherichia coli = assay: Antimicrobial activity against Escherichia coli by agar diffusion test
Bacillus subtilis = assay: Antimicrobial activity against Bacillus subtilis by agar diffusion test
Chlorella vulgaris = assay: Antimicrobial activity against Chlorella vulgaris by agar diffusion test
Chlorella sorokiniana = assay: Antimicrobial activity against Chlorella sorokiniana by agar diffusion test
Candida albicans = assay: Antimicrobial activity against Candida albicans by agar diffusion test
Rhizomucor miehei = assay: Antimicrobial activity against Mucor miehei by agar diffusion test
[1] = system: Streptomyces viridochromogenes; assay: Antimicrobial activity against Streptomyces viridochromogenes Tu57 by agar diffusion test
Staphylococcus aureus = assay: Antimicrobial activity against Staphylococcus aureus by agar diffusion test
Desmodesmus subspicatus = assay: Antimicrobial activity against Scenedesmus subspicatus by agar diffusion test

Measured: Activity

O=C(O)/C=C/C(=O)c1nccc2c1[nH]c1ccccc12
inactive: Escherichia coli | Bacillus subtilis | Chlorella vulgaris | Chlorella sorokiniana | Candida albicans | Rhizomucor miehei | [1] | Staphylococcus aureus | Desmodesmus subspicatus

COC(=O)/C=C/C(=O)c1nccc2c1[nH]c1ccccc12
inactive: Escherichia coli | Bacillus subtilis | Chlorella vulgaris | Chlorella sorokiniana | Candida albicans | Rhizomucor miehei | [1] | Staphylococcus aureus | Desmodesmus subspicatus

CC(=O)OCc1ccc(CO)o1
inactive: Escherichia coli | Bacillus subtilis | Chlorella vulgaris | Chlorella sorokiniana | Candida albicans | Rhizomucor miehei | [1] | Staphylococcus aureus | Desmodesmus subspicatus

OCc1ccc(-c2nccc3c2[nH]c2ccccc23)o1
inactive: Escherichia coli | Bacillus subtilis | Chlorella vulgaris | Chlorella sorokiniana | Candida albicans | Rhizomucor miehei | [1] | Staphylococcus aureus | Desmodesmus subspicatus

COC(OCc1ccc(C=O)o1)c1ccc(CO)o1 (configuration not stated)
inactive: Escherichia coli | Bacillus subtilis | Chlorella vulgaris | Chlorella sorokiniana | Candida albicans | Rhizomucor miehei | [1] | Staphylococcus aureus | Desmodesmus subspicatus

CC(=O)OCc1ccc(COC(C)=O)o1
inactive: Escherichia coli | Bacillus subtilis | Chlorella vulgaris | Chlorella sorokiniana | Candida albicans | Rhizomucor miehei | [1] | Staphylococcus aureus | Desmodesmus subspicatus

COC(OCc1ccc(C(OC)OCc2ccc(C=O)o2)o1)c1ccc(CO)o1 (configuration not stated)
inactive: Escherichia coli | Bacillus subtilis | Chlorella vulgaris | Chlorella sorokiniana | Candida albicans | Rhizomucor miehei | [1] | Staphylococcus aureus | Desmodesmus subspicatus

CC1=C(O)C(=O)/C(=C\c2ccc(CO)o2)O1
inactive: Escherichia coli | Bacillus subtilis | Chlorella vulgaris | Chlorella sorokiniana | Candida albicans | Rhizomucor miehei | [1] | Staphylococcus aureus | Desmodesmus subspicatus

From ChEMBL document CHEMBL1156650, “Furan oligomers and beta-carbolines from terrestrial streptomycetes” (J Nat Prod, 2008)
